Measured values reported in paper PMC8645336, “Benchmarking a highly selective USP30 inhibitor for enhancement of mitophagy and pexophagy” (Life Science Alliance, 2021).

Target: T1, USP8 (Homo sapiens, UniProt P40818)
T1 sequence (P40818 1-1118): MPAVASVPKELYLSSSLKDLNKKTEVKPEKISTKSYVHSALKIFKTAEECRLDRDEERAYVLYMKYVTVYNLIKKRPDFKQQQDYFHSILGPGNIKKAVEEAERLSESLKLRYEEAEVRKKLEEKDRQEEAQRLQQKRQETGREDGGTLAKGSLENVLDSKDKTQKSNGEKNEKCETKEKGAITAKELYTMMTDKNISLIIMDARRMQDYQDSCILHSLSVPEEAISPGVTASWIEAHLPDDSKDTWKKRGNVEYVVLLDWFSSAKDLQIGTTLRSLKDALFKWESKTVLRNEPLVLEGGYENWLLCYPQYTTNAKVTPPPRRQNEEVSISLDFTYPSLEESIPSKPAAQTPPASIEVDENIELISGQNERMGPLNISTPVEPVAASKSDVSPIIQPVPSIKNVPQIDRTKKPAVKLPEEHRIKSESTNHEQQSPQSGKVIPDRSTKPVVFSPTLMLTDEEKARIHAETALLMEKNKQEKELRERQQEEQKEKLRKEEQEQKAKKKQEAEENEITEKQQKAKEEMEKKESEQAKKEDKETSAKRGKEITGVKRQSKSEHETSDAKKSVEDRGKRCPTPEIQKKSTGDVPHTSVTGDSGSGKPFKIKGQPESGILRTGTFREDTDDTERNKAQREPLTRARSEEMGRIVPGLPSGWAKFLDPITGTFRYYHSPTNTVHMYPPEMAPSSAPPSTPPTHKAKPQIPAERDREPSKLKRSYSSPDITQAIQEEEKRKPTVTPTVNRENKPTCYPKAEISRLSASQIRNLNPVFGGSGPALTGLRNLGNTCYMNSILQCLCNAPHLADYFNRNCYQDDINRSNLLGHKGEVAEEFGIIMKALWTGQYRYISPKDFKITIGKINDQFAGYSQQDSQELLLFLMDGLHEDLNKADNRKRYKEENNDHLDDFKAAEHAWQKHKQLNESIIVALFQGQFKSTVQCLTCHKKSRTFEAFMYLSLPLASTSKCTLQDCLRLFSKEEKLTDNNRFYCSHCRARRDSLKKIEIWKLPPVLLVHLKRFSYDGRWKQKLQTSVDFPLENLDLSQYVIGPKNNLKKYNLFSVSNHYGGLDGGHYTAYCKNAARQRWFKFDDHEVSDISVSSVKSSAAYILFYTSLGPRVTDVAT
Test: biochemical
Parameters: Ubiquigent DUB profiler selectivity panel, remaining enzyme activity as % of control
Details: read-out: % of control remaining
Summary of the method: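 In YFP-PRKN-overexpressing hTERT-RPE1 cells, 1 h antimycin A plus oligomycin A (1 μM each) with CMPD-39, then Western blot of TOMM20 ubiquitylation. Target engagement: 2 h compound, then 10 min HA-Ub-PA at 37°C, read as USP30 shift. DUB panel (>40 enzymes) screened at 1-100 μM.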

remaining activity at 1 µM: 105% | remaining activity at 10 µM: 100% | remaining activity at 100 µM: 102%
SMILES: CC(C)(C)NS(=O)(=O)c1ccc(NC(=O)[C@H](Cc2ccccc2)NC(=O)c2ccc(F)cc2)cc1 [compound 39, CMPD-39]
